Results from ChEMBL document CHEMBL1127505, “Structure-activity relationships of new taxoids derived from 14 beta-hydroxy-10-deacetylbaccatin III” (J Med Chem, 1994).

What was measured:
Type in all cases: functional, cell-based
MCF7 [1] = assay: In vitro cytotoxicity against human mammary carcinoma cells 180 fold resistant to adriamycin MCF7-R
A549 = assay: In vitro cytotoxicity against human non-small cell lung carcinoma A549
A121 = assay: In vitro cytotoxicity against human ovarian carcinoma […]
HT-29 = assay: In vitro cytotoxicity against human colon carcinoma HT-29
MCF7 [2] = assay: In vitro cytotoxicity against human mammary carcinoma MCF-7

| Structure (SMILES) | IC50 (MCF7 [1]) | IC50 (A549) | IC50 (A121) | IC50 (HT-29) | IC50 (MCF7 [2]) |
| --- | --- | --- | --- | --- | --- |
| CC(=O)O[C@@]12CO[C@@H]1C[C@H](O)[C@@]1(C)C(=O)[C@H](O)C3=C(C)[C@@H](OC(=O)[C@H](O)[C@@H](NC(=O)OC(C)(C)C)c4ccccc4)[C@@H]4OC(=O)O[C@]4([C@@H](OC(=O)c4ccccc4)C12)C3(C)C (some centres not stated) | 543 nM | 2.1 nM | 6.2 nM | 1.8 nM | 1.8 nM |
| CC(=O)O[C@@]12CO[C@@H]1C[C@H](O)[C@@]1(C)C(=O)[C@H](O)C3=C(C)[C@@H](O)[C@H](OC(=O)[C@@H](O)C(NC(=O)OC(C)(C)C)c4ccccc4)[C@@](O)([C@@H](OC(=O)c4ccccc4)C12)C3(C)C (some centres not stated) | > 1000 nM | 31 nM | 80 nM | 50 nM | 26 nM |
| CC(=O)O[C@@]12CO[C@@H]1C[C@H](O)[C@@]1(C)C(=O)[C@H](O)C3=C(C)[C@@H](O)[C@H](OC(=O)[C@@H](O)C(NC(=O)c4ccccc4)c4ccccc4)[C@@](O)([C@@H](OC(=O)c4ccccc4)C12)C3(C)C (some centres not stated) | > 1000 nM | 512 nM | 1040 nM | 248 nM | 269 nM |
| CC(=O)O[C@H]1C(=O)[C@@]2(C)[C@H]([C@H](OC(=O)c3ccccc3)[C@]3(O)C[C@H](OC(=O)[C@H](O)[C@@H](NC(=O)c4ccccc4)c4ccccc4)C(C)=C1C3(C)C)[C@]1(OC(C)=O)CO[C@@H]1C[C@@H]2O [PACLITAXEL] | – | – | 6.1 nM | 3.2 nM | – |
| CC(=O)O[C@@]12CO[C@@H]1C[C@H](O)[C@@]1(C)C(=O)[C@H](O)C3=C(C)[C@@H](OC(=O)[C@H](O)[C@@H](NC(=O)c4ccccc4)c4ccccc4)[C@@H]4OC(=O)O[C@]4([C@@H](OC(=O)c4ccccc4)C12)C3(C)C (some centres not stated) | > 1000 nM | 33 nM | 105 nM | 24 nM | 11 nM |
